Source: US9758508B2, “2,3-dihydro-isoindole-1-on derivative as BTK kinase suppressant, and pharmaceutical composition including same” (CRYSTALGENOMICS, INC., priority 2012, dated 2017)

Target: BTK (Homo sapiens (Human), UniProt Q06187)
Assay: Assay for BTK inhibition activity (ELISA method)
Assay type: biochemical
Settings: 0.4 nM BTK enzyme, 50 μM ATP, 20 minutes at 30° C.
Protocol: In order to evaluate the activity of the compounds of the present invention as a BTK inhibitor, commercially available BTK (Promega) was used for this experiment. Specifically, an enzymatic reaction was conducted by mixing 0.4 nM of BTK enzyme, 40 μM of biotin-S1 substrate peptide and 50 μM of ATP in a reaction buffer (15 mM Tris-HCl (pH 7.5), 20 mM MgCl2, 2 mM MnCl2, 2 mM DTT, 0.1 mg/ml BSA). The mixture was treated with the test compounds at predetermined concentrations and allowed to react for 20 minutes at 30° C. Upon completion of the reaction, the activities of the test compounds were measured by ELISA method. The absorbance value of an untreated sample was used as a control (100% control). BTK enzyme activities were measured after treatment with various concentrations of the test compounds, and the concentration of test compounds resulting in 50% inhibition of BTK enzyme as compared to the control was determined as IC50 of BTK inhibitor.

BTK, sequence (Q06187 whole entry): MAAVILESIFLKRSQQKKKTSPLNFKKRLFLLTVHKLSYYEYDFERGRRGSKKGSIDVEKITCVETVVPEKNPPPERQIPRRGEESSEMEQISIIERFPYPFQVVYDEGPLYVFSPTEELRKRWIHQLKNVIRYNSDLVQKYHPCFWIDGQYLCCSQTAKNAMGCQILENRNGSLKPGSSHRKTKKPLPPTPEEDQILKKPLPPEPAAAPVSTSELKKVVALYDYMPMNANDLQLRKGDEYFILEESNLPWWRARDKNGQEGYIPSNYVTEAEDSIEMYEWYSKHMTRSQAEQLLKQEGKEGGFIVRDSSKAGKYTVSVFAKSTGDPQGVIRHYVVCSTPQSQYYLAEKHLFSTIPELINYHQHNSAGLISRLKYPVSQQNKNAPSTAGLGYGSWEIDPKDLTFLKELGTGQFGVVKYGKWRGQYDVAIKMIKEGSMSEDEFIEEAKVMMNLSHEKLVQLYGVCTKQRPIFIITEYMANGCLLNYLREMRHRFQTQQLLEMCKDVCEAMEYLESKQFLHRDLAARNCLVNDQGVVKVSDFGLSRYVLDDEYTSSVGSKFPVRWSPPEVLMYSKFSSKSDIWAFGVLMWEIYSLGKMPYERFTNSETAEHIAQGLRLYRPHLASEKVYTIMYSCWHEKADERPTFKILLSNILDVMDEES

Compound	IC50 [nM]
Cc1cnc(-c2ccc(-c3ccc(NC(=O)Nc4ccc(C#N)c(F)c4)cc3F)c3c2C(=O)NC3)[nH]1 [Compound 15, 1-(4-cyano-3-fluorophenyl)-3-(3-fluoro-4-(7-(5-methyl-1H-imidazol-2-yl)-1-oxoisoindolin-4-yl)phenyl)urea]	5
Cc1cnc(-c2ccc(-c3ccc(NC(=O)Nc4c(F)cc(Cl)cc4F)cc3F)c3c2C(=O)NC3)[nH]1 [Compound 19, 1-(4-chloro-2,6-difluoro-phenyl)-3-{3-fluoro-4-[7-(5-methyl-1H-imidazol-2-yl)-1-oxo-2,3-dihydro-1H-isoindol-4-yl]-phenyl}-urea]	4
Cc1cnc(-c2ccc(-c3ccc(NC(=O)Nc4c(F)cccc4F)cc3F)c3c2C(=O)NC3)[nH]1 [Compound 3, 1-(2,6-difluoro-phenyl)-3-{3-fluoro-4-[7-(5-methyl-1H-imidazol-2-yl)-1-oxo-2,3-dihydro-1H-isoindol-4-yl]-phenyl}-urea]	1
Cc1cnc(-c2ccc(-c3ccc(NC(=O)Nc4ccc(F)c(F)c4)cc3F)c3c2C(=O)NC3)[nH]1 [Compound 14, 1-(3,4-difluoro-phenyl)-3-{3-fluoro-4-[7-(5-methyl-1H-imidazol-2-yl)-1-oxo-2,3-dihydro-1H-isoindol-4-yl]-phenyl}-urea]	5.6
Cc1cnc(-c2ccc(-c3ccc(NC(=O)Nc4c(F)c(F)cc(F)c4F)cc3F)c3c2C(=O)NC3)[nH]1 [Compound 20, 1-{3-fluoro-4-[7-(5-methyl-1H-imidazol-2-yl)-1-oxo-2,3-dihydro-1H-isoindol-4-yl]-phenyl}-3-(2,3,5,6-tetrafluoro-phenyl)-urea]	0.9

Results, then the compound that gave them:

IC50 [nM]	Compound
0.07	Cc1cnc(-c2ccc(-c3ccc(NC(=O)Nc4c(F)ccc(F)c4Cl)cc3F)c3c2C(=O)NC3)[nH]1 [Compound 18, 1-(2-chloro-3,6-difluorophenyl)-3-(3-fluoro-4-(7-(5-methyl-1H-imidazol-2-yl)-1-oxoisoindolin-4-yl)phenyl)urea]
0.4	Cc1cnc(-c2ccc(-c3ccc(NC(=O)Nc4c(F)c(F)c(F)c(F)c4F)cc3F)c3c2C(=O)NC3)[nH]1 [Compound 9, 1-{3-fluoro-4-[7-(5-methyl-1H-imidazol-2-yl)-1-oxo-2,3-dihydro-1H-isoindol-4-yl]-phenyl}-3-pentafluorophenyl-urea]
0.9	Cc1cnc(-c2ccc(-c3ccc(NC(=O)Nc4c(F)cccc4Cl)cc3F)c3c2C(=O)NC3)[nH]1 [Compound 4, 1-(2-chloro-6-fluoro-phenyl)-3-{3-fluoro-4-[7-(5-methyl-1H-imidazol-2-yl)-1-oxo-2,3-dihydro-1H-isoindol-4-yl]-phenyl}-urea]
0.1	Cc1cnc(-c2ccc(-c3ccc(NC(=O)Nc4c(F)cc(F)cc4F)cc3F)c3c2C(=O)NC3)[nH]1 [Compound 7, 1-{3-fluoro-4-[7-(5-methyl-1H-imidazol-2-yl)-1-oxo-2,3-dihydro-1H-isoindol-4-yl]-phenyl}-3-(2,4,6-trifluoro-phenyl)-urea]
0.05	Cc1cnc(-c2ccc(-c3ccc(NC(=O)Nc4c(F)ccc(Cl)c4F)cc3F)c3c2C(=O)NC3)[nH]1 [Compound 17, 1-(3-chloro-2,6-difluorophenyl)-3-(3-fluoro-4-(7-(5-methyl-1H-imidazol-2-yl)-1-oxoisoindolin-4-yl)phenyl)urea]
0.28	Cc1cnc(-c2ccc(-c3ccc(NC(=O)Nc4c(F)ccc(F)c4F)cc3F)c3c2C(=O)NC3)[nH]1 [Compound 12, 1-{3-fluoro-4-[7-(5-methyl-1H-imidazol-2-yl)-1-oxo-2,3-dihydro-1H-isoindol-4-yl]-phenyl}-3-(2,3,6-trifluoro-phenyl)-urea]
